Test results taken from patent US10314827B2, “Methods of use of cyclopamine analogs” (Infinity Pharmaceuticals, Inc., priority 2006, dated 2019).

Assays:
Hedgehog pathway = experiment: C3H10T1/2 osteoblast differentiation assay (alkaline phosphatase readout); type: cell-based, Mouse; details: Mus musculus, C3H 10T1/2; C3H10T1/2 cells, sonic Hedgehog 250 ng/ml, AP activity normalized to total protein; read-out: Differentiation Assay EC50 (approximate EC50 for inhibition)
Text: Hedgehog pathway specific cancer cell killing effects may be ascertained using the following assay. C3H10T1/2 cells differentiate into osteoblasts when contacted with the sonic hedgehog peptide (Shh-N). Upon differentiation; these osteoblasts produce high levels of alkaline phosphatase (AP) which can be measured in an enzymatic assay (Nakamura et al., X BBRC (1997) 237:465). Compounds that block the differentiation of C3H10T1/2 into osteoblasts (a Shh dependent event) can therefore be identified by a reduction in AP production (van der Horst et al., Bone (2003) 33:899). The assay details are described below. The results approximate (EC50 for inhibition) of the differentiation assay is shown below in Table 1.
Mouse embryonic mesoderm fibroblasts C3H10T1/2 cells (obtained from ATCC) were cultured in Basal MEM Media (Gibco/Invitrogen) supplemented with 10% heat inactivated FBS (Hyclone), 50 units/ml penicillin and 50 ug/ml streptomycin (Gibco/Invitrogen) at 37° C. With 5% CO2 in air atmosphere.
C3H10T1/2 cells were plated in 96 wells with a density of 8×10^3 cells/well. Cells were grown to confluence (72 hrs). After sonic Hedgehog (250 ng/ml), and/or compound treatment, the cells were lysed in 110 μL of lysis buffer (50 mm Tris ph 7.4, 0.1% tritonx100), plates were sonicated and lysates spun through 0.2 μm PVDF plates (Corning). 40 μL of lysates was assayed for AP activity in alkaline buffer solution (Sigma) containing 1 mg/ml p-Nitrophenyl Phosphate. After incubating for 30 min at 37° C., the plates were read on an Envision plate reader at 405 nm. Total protein was quantified with a BCA protein assay kit from Pierce according to manufacturer's instructions. AP activity was normalized against total protein.

REH = experiment: ALL colony formation in methylcellulose, REH; type: cell-based; details: treated 72 hours
Protocol: (§1) The effect of Compound 42 on the growth of two of these cell lines, treated in vitro for 72 hours, was also studied. Following treatment, cells were washed and plated in methylcellulose.

KG1a = experiment: MDS colony formation in methylcellulose, KG1a; type: cell-based, human; details: 1.0 um, 72 hours
Protocol: (§2) The ability of Compound 42 to inhibit the in vitro growth of human cell lines derived from patients with acute myeloid leukemia (AML, cell line U937) and myelodysplastic syndrome (MDS, cell line KG1 and KG1a) was studied. Each of the cell lines was treated for 72 hours with Compound 42 (1.0 um) followed by plating in methylcellulose.

medulloblastoma = experiment: Medulloblastoma model: Ptch1/Hic1 subcutaneous allografts, tumor growth; type: in vivo, mouse
Protocol: (§3) The activity of Compound 42 was also evaluated in a transgenic mouse model of medulloblastoma. Mice that are heterozygous for loss of function mutations in the tumor suppressors Patched1 (Ptch1) and Hypermethylated in Cancer (Hic1) develop spontaneous medulloblastoma. […] When passaged as subcutaneous allografts, these tumors grow aggressively and are Hedgehog pathway-dependent. This model was employed to evaluate the efficacy of orally administered Compound, and to correlate activity with drug exposure in plasma and tumors.
The approximate effective daily oral dose for 50% inhibition of tumor growth (ED50) is 4 mg/kg.

human Gli-1 = experiment: q-RT-PCR of HH pathway genes in harvested BXPC-3 tumors, human Gli-1; type: in vivo; details: tumors harvested 4 hours post last dose, 40 mg/kg/day orally
Protocol: (§4) The activity of Compound 42 was further tested in a human pancreatic model: BXPC-3 cells were implanted subcutaneously into the flanks of the right legs of mice. On day 42 post-tumor implant, the mice were randomized into two groups to receive either Vehicle (30% HPBCD) or Compound 42. Compound 42 administered orally at 40 mg/kg/day. […] At the end of the study, the tumors were harvested 4 hours post the last dose to evaluate an on target response by q-RT-PCR analysis of the HH pathway genes.

[1] = tested on: primary clinical bone marrow specimens derived from patients with MM; experiment: Multiple myeloma colony growth in methylcellulose, primary clinical specimens; type: cell-based, human; details: primary clinical MM samples, treated 96 hours, colonies quantified 10-21 days later
Protocol: (§5) The ability of Compound 42 to inhibit the growth of multiple myeloma cells (MM) in vitro was tested, using human multiple myeloma cells lines (NCI-H929 and KMS12) and primary clinical bone marrow specimens derived from patients with MM. The cells were treated for 96 hours with Compound, washed, then plated in methylcellulose. Tumor colonies were quantified 10-21 days later as an indicator of cell growth potential following treatment.

[2] = tested on: Gli-responsive luciferase reporter; experiment: Gli-responsive luciferase reporter transient transfection assay, REH; type: cell-based; details: 1 um, vehicle alone 6.73
Text: (§6) The activity of Compound 42 (1 um) against three pre-B cell acute lymphocytic leukemia cell lines (REH, RS4-11, and Nalm-6) was studied, using a transient transfection assay in which a Gli-responsive luciferase reporter was transiently transfected into cells. Treatment with Compound 42 repressed luciferase activity compared to a vehicle treated control (Table 4).

murine Gli-1 = experiment: q-RT-PCR of HH pathway genes in harvested BXPC-3 tumors, murine Gli-1; type: in vivo; details: tumors harvested 4 hours post last dose, 40 mg/kg/day orally, vs vehicle group
Protocol: as §4

U937 = experiment: AML colony formation in methylcellulose, U937; type: cell-based, human; details: 1.0 um, 72 hours
Protocol: as §2

Jeko-1 = experiment: NHL colony formation in methylcellulose, Jeko-1; type: cell-based, human; details: Jeko-1 (NHL), 1.0 um, 72 hours
Protocol: (§7) The ability of Compound 42 to inhibit the in vitro growth of human cell lines derived from patients with non-Hodgkin's lymphoma (cell lines RL and Jeko-1) and Hodgkin's disease (cell line L428) was studied. Each of the cell lines was treated for 72 hours with Compound 42 (1.0 um) followed by plating in methylcellulose.

RL = experiment: NHL colony formation in methylcellulose, RL; type: cell-based, human; details: 1.0 um, 72 hours
Protocol: as §7

Oral multi-dose MTD = details: mouse, in vivo, mice
Gli-1 = experiment: Medulloblastoma model: Gli-1 mRNA expression in subcutaneously implanted tumors; type: in vivo, mouse; details: single oral dose, 8 hours post dose
Protocol: as §3

KMS12 = experiment: Multiple myeloma colony growth in methylcellulose, KMS12; type: cell-based, human; details: KMS12, treated 96 hours, colonies quantified 10-21 days later
Protocol: as §5

BXPC-3 cells = experiment: Pancreatic cancer model: subcutaneous BXPC-3 tumors in mice; type: in vivo, human; details: orally 40 mg/kg/day, 25 daily doses, p=0.0309
Protocol: as §4

[3] = tested on: Gli-responsive luciferase reporter; experiment: Gli-responsive luciferase reporter transient transfection assay, RS4-11; type: cell-based; details: RS4-11, 1 um; vehicle alone 12.97
Text: as §6

KG1 = experiment: MDS colony formation in methylcellulose, KG1; type: cell-based, human; details: 1.0 um, 72 hours
Protocol: as §2

[4] = tested on: Gli-responsive luciferase reporter; experiment: Gli-responsive luciferase reporter transient transfection assay, Nalm-6; type: cell-based; details: Nalm-6, 1 um; vehicle alone 8.42
Text: as §6

NCI-H929 = experiment: Multiple myeloma colony growth in methylcellulose, NCI-H929; type: cell-based, human; details: NCI-H929, treated 96 hours, colonies quantified 10-21 days later
Protocol: as §5

RS4-11 = experiment: ALL colony formation in methylcellulose, RS4-11; type: cell-based; details: RS4-11, treated 72 hours
Protocol: as §1

LX22 cells = experiment: Lung cancer model: LX22 primary SCLC xenograft; type: in vivo, human
Text: To test the activity of Compound 42 in a human SCLC tumor model, LX22 cells were implanted subcutaneously into the flank of the right leg. LX22 is primary xenograft model of SCLC derived from chemo-naive patients, which has been maintained by mouse to mouse passaging. This tumor responds to etoposide/carboplatin chemotherapy in way that closely resembles a clinical setting. LX22 regresses during chemotherapy treatment, goes through a period of remission, and then begins to recur. In the LX22 model, Compound single agent activity and its ability to modulate the chemoresistant recurrence was tested. On day 32 post tumor implant, mice were randomized into three dosing groups to receive Vehicle (30% HBPCD), Compound, or the chemotherapy combination of etoposide and carboplatin (E/P). […] Etoposide was administered i.v at 12 mg/kg on days 34, 35, 36, and 48, while Carboplatin was administered i.v. At 60 mg/kg on days 34, 41, and 48, post tumor implant. On day 50, the E/P treated mice were further randomized to receive either Vehicle (30% HPBCD) or Compound follow up treatment.

L428 = experiment: Hodgkin's disease colony formation in methylcellulose, L428; type: cell-based, human; details: L428 (HD), 1.0 um, 72 hours
Protocol: as §7

CC(=O)NCCN1C[C@@H](C)C[C@H]2O[C@]3(CC[C@@H]4C(=C(C)C3)C[C@H]3[C@H]4CC[C@@H]4CC(=O)CC[C@@]43C)[C@H](C)[C@@H]21 [Compound 21]
EC50 (Hedgehog pathway): 20 to 100 nM

CC(=O)N(C)CCN1C[C@@H](C)C[C@H]2O[C@]3(CC[C@@H]4C(=C(C)C3)C[C@H]3[C@H]4CC[C@@H]4CC(=O)CC[C@@]43C)[C@H](C)[C@@H]21 [Compound 22]
EC50 (Hedgehog pathway): < 20 nM

CC1=C2C[C@H]3[C@@H](CC[C@@H]4CC(=O)CC[C@@]43C)[C@@H]2CC[C@@]2(C1)O[C@@H]1C[C@H](C)CN(CCNC(=O)CCc3ccccc3)[C@H]1[C@H]2C [Compound 23]
EC50 (Hedgehog pathway): < 20 nM

CC1=C2C[C@H]3[C@@H](CC[C@@H]4CC(=O)CC[C@@]43C)[C@@H]2CC[C@@]2(C1)O[C@@H]1C[C@H](C)CN(CCN(C)C(=O)CCc3ccccc3)[C@H]1[C@H]2C [Compound 24]
EC50 (Hedgehog pathway): < 20 nM

CC(=O)O[C@H]1CC[C@@]2(C)[C@H](CC[C@H]3[C@@H]4CC[C@@]5(CC(C)=C4C[C@@H]32)O[C@@H]2C[C@H](C)CN[C@H]2[C@H]5C)C1 [Compound 35]
EC50 (Hedgehog pathway): < 20 nM

CC1=C2C[C@H]3[C@@H](CC[C@@H]4C[C@H](NS(C)(=O)=O)CC[C@@]43C)[C@@H]2CC[C@@]2(C1)O[C@@H]1C[C@H](C)CN[C@H]1[C@H]2C [Compound 42]
colony formation with Compound (relative to vehicle control) - 1° plating (REH): 63
colony formation with Compound (relative to vehicle control) - 2° plating (REH; replating of colonies): 9
% colony formation with Compound 42 (relative to vehicle control) (KG1a): 34.6%
EC50 (Hedgehog pathway): < 20 nM
ED50 (medulloblastoma; Mus musculus, daily oral dosing, approximate, read-out: effective daily oral dose for 50% inhibition of tumor growth (ED50)): ~4 mg/kg
inhibition of tumor growth (medulloblastoma; daily (QD) PO administration): dose dependent inhibition of tumor growth, with frank tumor regression seen at higher doses
long term survival following cessation of treatment (medulloblastoma; treated QD for 21 days): > 60 days
tumor re-growth following cessation of treatment (medulloblastoma; treated QD for 21 days): little to no tumor re-growth
human Gli-1 modulation (q-RT-PCR) (human Gli-1): no modulation
growth of cells relative to untreated control (100%) [1]: less than 25%
Relative luc activity (+Compound) [2]: 1.12
murine Gli-1 mRNA levels (q-RT-PCR) (murine Gli-1): robust down-regulation
% colony formation with Compound 42 (relative to vehicle control) (U937): 43.4%
% colony formation with Compound 42 (relative to vehicle control) (Jeko-1): 27.4%
% colony formation with Compound 42 (relative to vehicle control) (RL): 14.3%
MTD (Oral multi-dose MTD): 40 mg/kg/day
HH pathway down-regulation measured by Gli-1 mRNA expression (Gli-1): dose-dependent down-regulation
growth of cells relative to untreated control (100%) (KMS12): less than 25%
reduction of tumor volume growth compared to vehicle control (BXPC-3 cells): 40%
Relative luc activity (+Compound) [3]: 1.31
% colony formation with Compound 42 (relative to vehicle control) (KG1): 25.1%
Relative luc activity (+Compound) [4]: 1.44
growth of cells relative to untreated control (100%) (NCI-H929): less than 25%
colony formation with Compound (relative to vehicle control) - 1° plating (RS4-11): 71
colony formation with Compound (relative to vehicle control) - 2° plating (RS4-11; replating of colonies): 11
tumor recurrence after etoposide/carboplatin (E/P), treated vs vehicle group (LX22 cells; follow up treatment from day 50, 40 mg/kg/day orally, 35 consecutive doses, p=0.0101): substantial delay in tumor recurrence
single agent activity, treated vs vehicle groups (LX22 cells; orally 40 mg/kg/day, 16 consecutive doses): no measurable difference
% colony formation with Compound 42 (relative to vehicle control) (L428): 21.4%

CC1=C2C[C@H]3[C@@H](CC[C@@H]4C[C@H](NS(C)(=O)=O)CC[C@@]43C)[C@@H]2CC[C@]12O[C@@H]1C[C@H](C)CN[C@H]1[C@H]2C [Compound 55]
EC50 (Hedgehog pathway): < 20 nM
